# Where two headings read alike, the source gives them in different places.
# Experiments:
# activated T cells [1] = assay: T cell apoptosis assay (Annexin V/PI FACS), 15A7H and/or ruxolitinib; type: cell-based, human; settings: ruxolitinib alone, 0.122-10 μM, 48 hours
# Protocol: T cell stimulation was achieved through Phytohemagglutinin-L (PHA) treatment prior to the apoptosis assays described below. In brief, human blood samples used in the study were obtained from heathy human donors. Peripheral blood mononuclear cells (PBMCs) were freshly isolated from whole blood by Ficoll-Hypaque gradient centrifugation (Ficoll-Paque PLUS, GE Healthcare, Cat #17-1440-03) at 2400 revolutions per minute (rpm) for 15 minutes at room temperature. The buffy coat layer containing mononuclear cells was collected and washed 3 times with phosphate-buffered saline (PBS) to minimize platelet contamination. […]
# Fluorescence-activated cell sorting (FACS) analysis using the Annexin V/propidium iodide (PI) staining method was used to determine the apoptotic rate in drug- and control-treated cells. […]
# Samples were run on a flow cytometer (BD LSR scanner; BD Biosciences, San Diego), and cell viability and apoptosis were calculated using a quadrant on the Annexin-V-FITC/PI histogram. Living cells were identified as those negatively stained for both fluorescence dyes, early apoptotic cells were identified as those only Annexin-V-FITC-positive, necrotic cells were identified as those only PI-positive, and late apoptotic cells were identified as those positively stained for both fluorescence dyes. […]
# activated T cells [2] = assay: Fixed-ratio combination cytotoxicity assay, ruxolitinib + 15A7H (Chou-Talalay, Calcusyn); type: cell-based, human; settings: for EC50: Homo sapiens, T-cell; for DRIRUXO (Dose-Reduction Index): EC50 level
# Protocol: T cell stimulation was achieved through Phytohemagglutinin-L (PHA) treatment prior to the apoptosis assays described below. In brief, human blood samples used in the study were obtained from heathy human donors. […] The buffy coat layer containing mononuclear cells was collected and washed 3 times with phosphate-buffered saline (PBS) to minimize platelet contamination.
# Activated T cells were seeded in 96-well plates at 1-1.5×10^5 cells/mL and were treated with ruxolitinib and antibody 15A7H alone, or in combination at fixed concentration ratios. For the combination of ruxolitinib and antibody 15A7H, fixed ratios at 3.3:1 and 1.1:1 were tested on T cells from four donors. In addition, a fixed ratio of ruxolitinib and antibody 15A7H of 0.37:1 was tested on T cells from two donors.
# Cell apoptosis was measured using an Annexin-V FITC Apoptosis Detection Kit (Strong Biotech, AVK250), according to the manufacturer's instructions.
# Results were expressed as apoptosis fractions (fraction affected), based on the measured fluorescence counts of treated samples, compared with that of untreated controls. Seven diagonals representing various dose-effect curves with fixed drug ratios were used to measure the combination indexes (CI) for each of the combinations with Calcusyn software (Biosoft). The combinatorial effect was defined as “synergistic”, “additive” or “antagonistic” when CI was <1, 1 and >1, respectively.
# [3] = test system: xenogeneic GvHD in ASID mice engrafted with human PBMCs; assay: Xenogeneic graft-versus-host disease (GvHD) mouse model, survival; type: in vivo; settings: ruxolitinib 45 mg/kg oral twice daily 15 days and/or 15A7H 10 mg/kg i.v. every 3 to 4 days, 5 doses
# Protocol: 8-9 weeks old female Advanced Severe Immuno-Deficiency (ASID) mice (NOD.Cg-Prkdc^scidIl2rg^tm1Wjl/YckNarl; NLAC NARLabs Taiwan) received a total body irradiation dose of 2.0 Gy and were engrafted with 3×10^6 human PBMCs by tail vein injection at 24 hours post irradiation. The mice were kept under pathogen-free conditions and reared under standardized methods as temperature set at 22±1° C. with a 12-hour daylight/dark cycle and full access to food and water. Experimental animals were randomly divided into treatment groups after receiving a minimum of 3 days of acclimatization to the environment.
# Xenogeneic GvHD (xGvHD) was induced in ASID mice receiving 3×10^6 human PBMCs (n=5-7 per group). Post 72 hours of human PBMC engraftment, ruxolitinib at 45 mg/kg or vehicle was orally administered twice daily for 15 days, as well as anti-PSGL-1 15A7H antibody at 10 mg/kg or vehicle was intravenously administered every 3 to 4 days for total 5 doses. Mice were assessed for survival daily. The time of the treatment initiated was designated as Day 1.
compound,measurement,setting,value
"N#CC[C@H](C1CCCC1)n1cc(-c2ncnc3[nH]ccc23)cn1 [RUXO, (R)-3-(4-(7H-pyrrolo[2,3-d]pyrimidin-4-yl)-1 H-pyrazol-1-yl)-3-cyclopentylpropanenitrile]",increase in apoptosis over background levels,activated T cells [1],minimal or no increases in apoptosis over background levels
same,EC50,"activated T cells [2]; donor N084, RUXO + 15A7H, ratio 1.1:1, read-out: EC50RUXO Combination Treatment",201 nM
same,EC50,"activated T cells [2]; donor N084, RUXO + 15A7H, ratio 3.3:1, read-out: EC50RUXO Combination Treatment",373 nM
same,EC50,"activated T cells [2]; donor N084, RUXO alone, section ratio 1.1:1, read-out: EC50RUXO Single Treatment",4220 nM
same,EC50,"activated T cells [2]; donor N084, RUXO alone, section ratio 3.3:1, read-out: EC50RUXO Single Treatment",4220 nM
same,EC50,"activated T cells [2]; donor N089, RUXO + 15A7H, ratio 1.1:1, read-out: EC50RUXO Combination Treatment",394 nM
same,EC50,"activated T cells [2]; donor N089, RUXO + 15A7H, ratio 3.3:1, read-out: EC50RUXO Combination Treatment",479 nM
same,EC50,"activated T cells [2]; donor N089, RUXO alone, section ratio 1.1:1, read-out: EC50RUXO Single Treatment",2360 nM
same,EC50,"activated T cells [2]; donor N089, RUXO alone, section ratio 3.3:1, read-out: EC50RUXO Single Treatment",2000 nM
same,EC50,"activated T cells [2]; donor N102, RUXO + 15A7H, ratio 0.37:1, read-out: EC50RUXO Combination Treatment",165 nM
same,EC50,"activated T cells [2]; donor N102, RUXO + 15A7H, ratio 1.1:1, read-out: EC50RUXO Combination Treatment",499 nM
same,EC50,"activated T cells [2]; donor N102, RUXO + 15A7H, ratio 3.3:1, read-out: EC50RUXO Combination Treatment",1150 nM
same,EC50,"activated T cells [2]; donor N102, RUXO alone, section ratio 0.37:1, read-out: EC50RUXO Single Treatment",10100 nM
same,EC50,"activated T cells [2]; donor N102, RUXO alone, section ratio 1.1:1, read-out: EC50RUXO Single Treatment",10100 nM
same,EC50,"activated T cells [2]; donor N102, RUXO alone, section ratio 3.3:1, read-out: EC50RUXO Single Treatment",10100 nM
same,EC50,"activated T cells [2]; donor N103, RUXO + 15A7H, ratio 0.37:1, read-out: EC50RUXO Combination Treatment",266 nM
same,EC50,"activated T cells [2]; donor N103, RUXO + 15A7H, ratio 1.1:1, read-out: EC50RUXO Combination Treatment",554 nM
same,EC50,"activated T cells [2]; donor N103, RUXO + 15A7H, ratio 3.3:1, read-out: EC50RUXO Combination Treatment",1010 nM
same,EC50,"activated T cells [2]; donor N103, RUXO alone, section ratio 0.37:1, read-out: EC50RUXO Single Treatment",9170 nM
same,EC50,"activated T cells [2]; donor N103, RUXO alone, section ratio 1.1:1, read-out: EC50RUXO Single Treatment",9170 nM
same,EC50,"activated T cells [2]; donor N103, RUXO alone, section ratio 3.3:1, read-out: EC50RUXO Single Treatment",9170 nM
same,DRIRUXO (Dose-Reduction Index),"activated T cells [2]; donor N084, RUXO + 15A7H, ratio 1.1:1",20.9884
same,DRIRUXO (Dose-Reduction Index),"activated T cells [2]; donor N084, RUXO + 15A7H, ratio 3.3:1",11.3242
same,DRIRUXO (Dose-Reduction Index),"activated T cells [2]; donor N089, RUXO + 15A7H, ratio 1.1:1",6.0012
same,DRIRUXO (Dose-Reduction Index),"activated T cells [2]; donor N089, RUXO + 15A7H, ratio 3.3:1",4.1685
same,DRIRUXO (Dose-Reduction Index),"activated T cells [2]; donor N102, RUXO + 15A7H, ratio 0.37:1",61.2797
same,DRIRUXO (Dose-Reduction Index),"activated T cells [2]; donor N102, RUXO + 15A7H, ratio 1.1:1",20.2269
same,DRIRUXO (Dose-Reduction Index),"activated T cells [2]; donor N102, RUXO + 15A7H, ratio 3.3:1",8.7676
same,DRIRUXO (Dose-Reduction Index),"activated T cells [2]; donor N103, RUXO + 15A7H, ratio 0.37:1",34.4195
same,DRIRUXO (Dose-Reduction Index),"activated T cells [2]; donor N103, RUXO + 15A7H, ratio 1.1:1",16.5574
same,DRIRUXO (Dose-Reduction Index),"activated T cells [2]; donor N103, RUXO + 15A7H, ratio 3.3:1",9.0902
same,effect on xenogeneic GVHD induced by human lymphocytes,[3],ameliorated xenogeneic GVHD
